Patent US6451736B1, “Substituted aromatic thiocarboxylic acid amides and their use as herbicides” (Bayer Aktiengesellschaft, priority 1994, dated 2002)

Tests used:
Assay type in all cases: in vivo
[1] = system: Chenopodium; assay: Pre-emergence test/greenhouse; settings: Table B, after three weeks
Method: (§1) To produce a suitable preparation of active compound, 1 part by weight of active compound is mixed with the stated amount of solvent, the stated amount of emulsifier is added and the concentrate is diluted with water to the desired concentration.
(§2) Seeds of the test plants are sown in normal soil and, after 24 hours, watered with the preparation of active compound. It is expedient to keep constant the amount of water per unit area. The concentration of the active compound in the preparation is of no importance, only the amount of active compound applied per unit area being decisive. After three weeks, the degree of damage to the plants is rated in % damage in comparison to the development of the untreated control. The figures denote:
(§3) 0%=no action (like untreated control)

[2] = system: Maize; assay: Pre-emergence test/greenhouse; settings: Table B, after three weeks
Method: as §1, §2, §3

[3] = system: Abuthilon; assay: Pre-emergence test/greenhouse; settings: Table B, after three weeks
Method: as §1, §2, §3

[4] = system: Solanum; assay: Pre-emergence test/greenhouse; settings: Table B, after three weeks
Method: as §1, §2, §3

[5] = system: Amaranthus; assay: Pre-emergence test/greenhouse; settings: Table B, after three weeks
Method: as §1, §2, §3

[6] = system: Wheat; assay: Pre-emergence test/greenhouse; settings: Table B, after three weeks
Method: as §1, §2, §3

[7] = system: Portulaca; assay: Pre-emergence test/greenhouse; settings: Table B, after three weeks
Method: as §1, §2, §3

[8] = system: Matricaria; assay: Pre-emergence test/greenhouse; settings: Table B, after three weeks
Method: as §1, §2, §3

[9] = system: Chenopodium; assay: Post-emergence test/greenhouse; settings: Table C, after three weeks
Method: as §1
(§4) Test plants which have a height of 5-15 cm are sprayed with the preparation of active compound in such a way as to apply the particular amounts of active compound desired per unit area. After three weeks, the degree of damage to the plants is rated in % damage in comparison to the development of the untreated control.
(§5) 0%=no action (like intreated control)

[10] = system: Maize; assay: Post-emergence test/greenhouse; settings: Table C, after three weeks
Method: as §1, §4, §5

[11] = system: Abuthilon; assay: Post-emergence test/greenhouse; settings: Table C, after three weeks
Method: as §1, §4, §5

[12] = system: Veronica; assay: Post-emergence test/greenhouse; settings: Table C, after three weeks
Method: as §1, §4, §5

[13] = system: Solanum; assay: Post-emergence test/greenhouse; settings: Table C, after three weeks
Method: as §1, §4, §5

[14] = system: Amaranthus; assay: Post-emergence test/greenhouse; settings: Table C, after three weeks
Method: as §1, §4, §5

[15] = system: Wheat; assay: Post-emergence test/greenhouse; settings: Table C, after three weeks
Method: as §1, §4, §5

Structure (SMILES): CCS(=O)(=O)Nc1cc(-n2nc3n(c2=O)CCCC3)c(F)cc1C(N)=S [Example 1, 2-(2-fluoro-5-ethylsulphonylamino-4-thiocarbamoyl-phenyl)-5,6,7,8-tetrahydro-1,2,4-triazolo[4,3-a]pyridin-3(2H)-one]
- degree of damage, Chenopodium ([1]; 125 g/ha): 100%
- degree of damage, Maize ([2]; 125 g/ha): 0%
- degree of damage, Abuthilon ([3]; 125 g/ha): 100%
- degree of damage, Solanum ([4]; 125 g/ha): 100%
- degree of damage, Amaranthus ([5]; 125 g/ha): 100%
- degree of damage, Wheat ([6]; 125 g/ha): 0%
- degree of damage, Portulaca ([7]; 125 g/ha): 100%
- degree of damage, Matricaria ([8]; 125 g/ha): 95%
- degree of damage, Chenopodium ([9]; 15 g/ha): 95%
- degree of damage, Maize ([10]; 15 g/ha): 50%
- degree of damage, Abuthilon ([11]; 15 g/ha): 100%
- degree of damage, Veronica ([12]; 15 g/ha): 100%
- degree of damage, Solanum ([13]; 15 g/ha): 100%
- degree of damage, Amaranthus ([14]; 15 g/ha): 95%
- degree of damage, Wheat ([15]; 15 g/ha): 10%

Structure (SMILES): Cn1c(C(F)F)nn(-c2cc(F)c(C(N)=S)cc2F)c1=S [Example 8]
- degree of damage, Chenopodium ([1]; 60 g/ha): 100%
- degree of damage, Maize ([2]; 60 g/ha): 0%
- degree of damage, Abuthilon ([3]; 60 g/ha): 100%
- degree of damage, Solanum ([4]; 60 g/ha): 100%
- degree of damage, Amaranthus ([5]; 60 g/ha): 100%
- degree of damage, Wheat ([6]; 60 g/ha): 40%
- degree of damage, Portulaca ([7]; 60 g/ha): 95%
- degree of damage, Matricaria ([8]; 60 g/ha): 95%
- degree of damage, Chenopodium ([9]; 60 g/ha): 100%
- degree of damage, Maize ([10]; 60 g/ha): 30%
- degree of damage, Abuthilon ([11]; 60 g/ha): 100%
- degree of damage, Veronica ([12]; 60 g/ha): 100%
- degree of damage, Solanum ([13]; 60 g/ha): 100%
- degree of damage, Amaranthus ([14]; 60 g/ha): 100%
- degree of damage, Wheat ([15]; 60 g/ha): 10%

Structure (SMILES): CCS(=O)(=O)Nc1cc(-n2nc(C(F)F)n(C)c2=O)c(F)cc1C(N)=S [Example 9]
- degree of damage, Chenopodium ([1]; 60 g/ha): 100%
- degree of damage, Maize ([2]; 60 g/ha): 0%
- degree of damage, Abuthilon ([3]; 60 g/ha): 100%
- degree of damage, Solanum ([4]; 60 g/ha): 100%
- degree of damage, Amaranthus ([5]; 60 g/ha): 100%
- degree of damage, Wheat ([6]; 60 g/ha): 0%
- degree of damage, Portulaca ([7]; 60 g/ha): 90%
- degree of damage, Matricaria ([8]; 60 g/ha): 95%
- degree of damage, Chenopodium ([9]; 60 g/ha): 100%
- degree of damage, Maize ([10]; 60 g/ha): 30%
- degree of damage, Abuthilon ([11]; 60 g/ha): 100%
- degree of damage, Veronica ([12]; 60 g/ha): 100%
- degree of damage, Solanum ([13]; 60 g/ha): 100%
- degree of damage, Amaranthus ([14]; 60 g/ha): 100%
- degree of damage, Wheat ([15]; 60 g/ha): 10%

Structure (SMILES): CCOc1cc(-n2nc3n(c2=O)CCCC3)c(F)cc1C(N)=S [Example 12]
- degree of damage, Chenopodium ([1]; 60 g/ha): 100%
- degree of damage, Maize ([2]; 60 g/ha): 0%
- degree of damage, Abuthilon ([3]; 60 g/ha): 70%
- degree of damage, Solanum ([4]; 60 g/ha): 70%
- degree of damage, Amaranthus ([5]; 60 g/ha): 70%
- degree of damage, Wheat ([6]; 60 g/ha): 20%
- degree of damage, Portulaca ([7]; 60 g/ha): 95%
- degree of damage, Matricaria ([8]; 60 g/ha): 95%
- degree of damage, Chenopodium ([9]; 8 g/ha): 95%
- degree of damage, Maize ([10]; 8 g/ha): 30%
- degree of damage, Abuthilon ([11]; 8 g/ha): 100%
- degree of damage, Veronica ([12]; 8 g/ha): 100%
- degree of damage, Solanum ([13]; 8 g/ha): 100%
- degree of damage, Amaranthus ([14]; 8 g/ha): 100%
- degree of damage, Wheat ([15]; 8 g/ha): 10%

Structure (SMILES): CCS(=O)(=O)Nc1cc(-n2nc(C3CC3)n(C)c2=O)c(F)cc1C(N)=S [Example 13]
- degree of damage, Chenopodium ([1]; 60 g/ha): 100%
- degree of damage, Maize ([2]; 60 g/ha): 0%
- degree of damage, Abuthilon ([3]; 60 g/ha): 100%
- degree of damage, Solanum ([4]; 60 g/ha): 100%
- degree of damage, Amaranthus ([5]; 60 g/ha): 100%
- degree of damage, Wheat ([6]; 60 g/ha): 0%
- degree of damage, Portulaca ([7]; 60 g/ha): 90%
- degree of damage, Matricaria ([8]; 60 g/ha): 70%
- degree of damage, Chenopodium ([9]; 15 g/ha): 80%
- degree of damage, Maize ([10]; 15 g/ha): 30%
- degree of damage, Abuthilon ([11]; 15 g/ha): 95%
- degree of damage, Veronica ([12]; 15 g/ha): 90%
- degree of damage, Solanum ([13]; 15 g/ha): 100%
- degree of damage, Amaranthus ([14]; 15 g/ha): 100%
- degree of damage, Wheat ([15]; 15 g/ha): 0%

Structure (SMILES): CCn1c(C(F)(F)F)nn(-c2cc(N(C)S(=O)(=O)CC)c(C(N)=S)cc2F)c1=O [Example 16]
- degree of damage, Chenopodium ([1]; 60 g/ha): 100%
- degree of damage, Maize ([2]; 60 g/ha): 0%
- degree of damage, Abuthilon ([3]; 60 g/ha): 95%
- degree of damage, Solanum ([4]; 60 g/ha): 80%
- degree of damage, Amaranthus ([5]; 60 g/ha): 20%
- degree of damage, Wheat ([6]; 60 g/ha): 10%
- degree of damage, Portulaca ([7]; 60 g/ha): 80%
- degree of damage, Matricaria ([8]; 60 g/ha): 90%
- degree of damage, Chenopodium ([9]; 60 g/ha): 100%
- degree of damage, Maize ([10]; 60 g/ha): 60%
- degree of damage, Abuthilon ([11]; 60 g/ha): 95%
- degree of damage, Veronica ([12]; 60 g/ha): 100%
- degree of damage, Solanum ([13]; 60 g/ha): 100%
- degree of damage, Amaranthus ([14]; 60 g/ha): 100%
- degree of damage, Wheat ([15]; 60 g/ha): 20%
